Holding throughout (type): in vivo
Experiment [1] deals with Phaedon cochleariae larvae. As to the kind of experiment: Critical concentration test / root-systemic action (cabbage, soil treatment). The method, then: (§1) Critical Concentration Test/Root-Systemic Action
To produce a suitable preparation of active compound, 1 part by weight of active compound is mixed with the stated amount of solvent, the stated amount of emulsifier is added and the concentrate is diluted with water to the desired concentration.
The active compound preparation is mixed intimately with soil. The concentration of the active compound in the preparation is of virtually no importance, only the amount by weight of active compound per unit volume of soil, which is given in ppm (=mg/l), being decisive. The treated soil is filled into 500 ml pots, 8 cabbage seeds are placed at a depth of approximately 1 cm, the hole is filled and the soil surface is pressed down gently.
After a further 3 days, the test is evaluated by estimating the leaf-feeding in the treated and in the untreated plant. The effect is 100% if, compared with the untreated control, only […] feeding damage is observed; it is 0% when the entire cabbage has been eaten.

The next experiment concerns Myzus persicae. As to the kind of experiment: Critical concentration test, foliar insecticidal activity against sucking pests (leaf dip, cabbage). The conditions noted are these: Myzus persicae on cabbage. An excerpt: Activity of Folia-Insecticidal Formulations Against Sucking Pests
The insecticidal activity was examined using the critical concentration test. From each of the test preparations, an aqueous dilution series is made by diluting the individual concentrations by the factor 5.
To determine any synergistic activity, weakly active concentrations of chloronicotinyl compounds are combined with various active compound concentrations of Tracer (Spinosad).
The test plants used are cabbage plants at the one-leaf stage which are infested by Myzus persicae (green peach aphid). The shoots or leaves with the aphids are dipped for approximately 3 seconds into the respective liquors. The experiments are subsequently placed in a greenhouse at 21° C. and 65% relative atmospheric humidity.
Evaluation for mortality is carried out after 2 and 7 days.

For the next experiment, the system named is Aphis fabae. As to the kind of experiment: Critical concentration test / root-systemic action (broad beans, soil treatment). The conditions noted are these: 0.035 ppm in soil. The protocol:
as §1
To produce a suitable preparation of active compound, 1 part by weight of active compound is mixed with a stated amount of solvent, the stated amount of emulsifier is added and the concentrate is diluted with water to the desired concentration.
The active compound preparation is mixed intimately with soil. The concentration of the active compound in the preparation is of virtually no importance, only the amount by weight of active compound per unit volume of soil, which is given in ppm (=mg/l), being decisive. The treated soil is filled into 250 ml pots and the pots are planted with pre-germinated broad beans. In this manner, the active compound can be taken up from the soil by the roots of the plants and transported into the leaves.
After a further 7 days, the test is evaluated by estimating the dead animals. The root-systemic effect of the active compound is deduced from the destruction figures. It is 100% when all the test animals have been killed and 0% when just as many test insects are still alive as in the untreated control.

Setting [2] is: compound (III) alone 0.00016% a.i., evaluation after 2 days.
Setting [3] is: compound (III) alone 0.00016% a.i., evaluation after 7 days.
The mark [4] stands for this setting: compound (III) alone 0.0008% a.i., evaluation after 2 days.
Where [5] appears, read: compound (III) alone 0.0008% a.i., evaluation after 7 days.

The structures appear in SMILES notation.

On to `C/C(=N\C#N)N(C)Cc1ccc(Cl)nc1` [Compound (IIIe)], for which the “Degree of destruction in % at active compound concentrations” value (from here on “Degree of destruction in %”) in experiment [1] (5.00 ppm in soil) worked out at 5.00 ppm = 0%.

On to `CN/C(=N\[N+](=O)[O-])NCc1cnc(Cl)s1` [Compound (IIIk)], for which, in experiment [1] (0.30 ppm in soil), the “Degree of destruction in %” value is on record as 0.30 ppm = 0%. In addition, the kill with Myzus persicae (setting [2]) was 10%; in the experiment with Myzus persicae (setting [3]), 2%; with Myzus persicae (setting [4]) it was 48%; in the experiment with Myzus persicae (setting [5]) it was 28%.

Take `O=[N+]([O-])/N=C1\NCCN1Cc1ccc(Cl)nc1` [Compound (IIIa)]: the figures for the “Degree of destruction in %” value (in the experiment on Aphis fabae; in experiment [1] (1.25 ppm in soil)) were 0.035 ppm = 50% and 1.25 ppm = 0%, respectively. For the same compound, the kill with Myzus persicae (setting [2]) is 18%; in the experiment on Myzus persicae (setting [3]) it was 2%; in the experiment on Myzus persicae (setting [4]), 90%; with Myzus persicae (setting [5]) it was 78%.

Regarding `CN1COCN(Cc2cnc(Cl)s2)/C1=N/[N+](=O)[O-]` [Compound (IIIg)], the “Degree of destruction in %” value in experiment [1] (0.30 ppm in soil) was 0.30 ppm = 50%. Moreover, the kill in the experiment with Myzus persicae (setting [2]) came to 0%; in the experiment on Myzus persicae (setting [3]), 0%; in the experiment on Myzus persicae (setting [4]) it was 79%; with Myzus persicae (setting [5]), 70%.

For `N#C/N=C1\SCCN1Cc1ccc(Cl)nc1` [Compound (III l)], the “Degree of destruction in %” value in experiment [1] (2.50 ppm in soil) is given as 2.50 ppm = 0%. Further, the kill in the experiment with Myzus persicae (setting [2]) came out at 8%; in the experiment on Myzus persicae (setting [3]) it was 0%; in the experiment with Myzus persicae (setting [4]), 85%; with Myzus persicae (setting [5]), 38%.
